Data on 26 compounds can be found in patent publication US8889696B2, “Substituted pyrido[2,3-d]pyrimidin-7(8H)-ones and therapeutic uses thereof” (Temple University—Of The Commonwealth System Of Higher …, priority 2009, dated 2014).

The test system of series [1] is K562 (chronic myelogenous leukemia). The series can be described thus: Effect on tumor cell lines (Latham assay), K562. The class given is cell-based. The note with it: Homo sapiens; K562 cells, examined 96 hours after treatment; read-out: Potencies (IC50) K 562. On the procedure:
(§1) The plated cells were treated 24 hours later with a compound of the invention dissolved in DMSO at multiple concentrations ranging from 0.01 μM to 100 μM. […] When necessary, the total number of viable cells was determined by trypsinizing the wells and counting the number of viable cells, as determined by trypan blue exclusion, using a hemacytometer.

For a further series, the system named is DU145 (prostate cancer). The series can be described thus: Effect on tumor cell lines (Latham assay), DU145. Conditions: Homo sapiens, DU-145; DU145 cells, examined 96 hours after treatment; read-out: Potencies (IC50) DU 145. The format is cell-based. On the procedure: as §1

Regarding `Cc1ccc(S(=O)(=O)c2cc3cnc(Nc4ccc5ncccc5c4)nc3n(C)c2=O)cc1` [Example 15, 8-methyl-2-(quinolin-6-ylamino)-6-tosylpyrido[2,3-]pyrimidin-7(8H)-one], the melting point – broadly, the temperature of the solid-liquid transition – lay within 325 to 330 °C. Moreover, the IC50 (commonly the concentration needed to halve the response being measured) in series [1] lay within 10 to 25 µM. In addition, in the series on DU145 (prostate cancer), the IC50 lay in the range of 10 to 25 µM.
As to `Cc1ccc(S(=O)(=O)c2cc3cnc(Nc4cccc5[nH]ccc45)nc3n(C)c2=O)cc1` [Example 16, 2-(1H-indol-4-ylamino)-8-methyl-6-tosylpyrido[2,3-d]pyrimidin-7(8H)-one], the melting point lay within 295 to 300 °C. Also, in series [1], the IC50 fell in the range of 1 to 10 µM. Moreover, in the series with DU145 (prostate cancer), the IC50 is 1 to 10 µM.
`Cc1ccc(S(=O)(=O)c2cc3cnc(Nc4ccc5[nH]ccc5c4)nc3n(C)c2=O)cc1` [Example 17, 2-(1H-indol-5-ylamino)-8-methyl-6-tosylpyrido[2,3-d]pyrimidin-7(8H)-one] returned a melting point of 310 to 314 °C. Besides, the IC50 in series [1] is below 1 µM. In the series on DU145 (prostate cancer), the IC50 is below 1 µM.
`Cn1c(=O)c(S(=O)(=O)c2ccc(Br)cc2)cc2cnc(Nc3ccc4[nH]ccc4c3)nc21` [Example 18, 2-(1H-indol-5-ylamino)-6-(4-bromophenylsulfonyl)-8-methylpyrido[2,3-d]pyrimidin-7(8H)-one] showed a melting point of 316 to 320 °C. Also, the IC50 in series [1] was in the range of 1 to 10 µM. In addition, the IC50 in the series on DU145 (prostate cancer) lay within 1 to 10 µM.
Turning to `Cc1ccc(S(=O)(=O)c2cc3cnc(Nc4cnc5[nH]ccc5c4)nc3n(C)c2=O)cc1` [Example 19, 2-(1H-pyrrolo[2,3-b]pyridin-5-ylamino)-8-methyl-6-tosylpyrido[2,3-d]pyrimidin-7(8H)-one], the melting point fell in the range of 252 to 255 °C. Further, the IC50 in series [1] was 1 to 10 µM. Besides, the IC50 in the series on DU145 (prostate cancer) fell in the range of 1 to 10 µM.
As for `COc1ccc(Nc2ncc3cc(S(=O)(=O)c4ccc(C)cc4)c(=O)n(C)c3n2)cc1` [Example 20, 2-(4-methoxyphenylamino)-8-methyl-6-tosylpyrido[2,3-d]pyrimidin-7(8H)-one], the melting point lay in the range of 336 to 340 °C. Besides, the IC50 in series [1] was 50 to 100 µM. In addition, in the series on DU145 (prostate cancer), the IC50 was above 100 µM.
`Cn1c(=O)c(S(=O)(=O)c2ccccc2)cc2cnc(Nc3ccc4[nH]ccc4c3)nc21` [Example 21, 2-(1H-indol-5-ylamino)-8-methyl-6-(phenylsulfonyl)pyrido[2,3-d]pyrimidin-7(8H)-one] displayed a melting point of 340 to 344 °C. Besides, the IC50 in series [1] was below 1 µM. Besides, the IC50 in the series on DU145 (prostate cancer) was in the range of 1 to 10 µM.
The compound `Cn1c(=O)c(S(=O)(=O)c2ccccc2)cc2cnc(Nc3cnc4[nH]ccc4c3)nc21` [Example 22, 2-(1H-pyrrolo[2,3-b]pyridin-5-ylamino)-8-methyl-6-(phenylsulfonyl)pyrido[2,3-d]pyrimidin-7(8H)-one] returned a melting point of 280 to 284 °C. Also, the IC50 in series [1] is below 1 µM. The IC50 in the series on DU145 (prostate cancer) is below 1 µM.
In turn, `Cn1c(=O)c(S(=O)(=O)c2ccccc2)cc2cnc(Nc3ccc4ncccc4c3)nc21` [Example 23, 8-methyl-6-(phenylsulfonyl)-2-(quinolin-6-ylamino)pyrido[2,3-d]pyrimidin-7(8H)-one] yielded a melting point of 348 to 350 °C. In series [1], the IC50 is above 100 µM. Moreover, the IC50 in the series on DU145 (prostate cancer) was 50 to 100 µM.
`Cn1c(=O)c(S(=O)(=O)c2ccc(F)cc2)cc2cnc(Nc3ccc4cc[nH]c4c3)nc21` [Example 24, 2-(1H-indol-6-ylamino)-6-(4-fluorophenylsulfonyl)-8-methylpyrido[2,3-d]pyrimidin-7(8H)-one] displayed a melting point above 350 °C. Also, the IC50 in series [1] was 25 to 50 µM. Moreover, the IC50 in the series on DU145 (prostate cancer) was in the range of 25 to 50 µM.
`Cn1c(=O)c(S(=O)(=O)c2ccccc2)cc2cnc(Nc3ccc4cc[nH]c4c3)nc21` [Example 25, 2-(1H-indol-6-ylamino)-8-methyl-6-(phenylsulfonyl)pyrido[2,3-d]pyrimidin-7(8H)-one] had a melting point above 350 °C. Moreover, in series [1], the IC50 fell in the range of 25 to 50 µM. For the same compound, in the series on DU145 (prostate cancer), the IC50 is 25 to 50 µM.
Turning to `COC(=O)c1ccc(S(=O)(=O)c2cc3cnc(Nc4ccc5[nH]ccc5c4)nc3n(C)c2=O)cc1` [Example 26, methyl 4-(2-(1H-indol-5-ylamino)-7,8-dihydro-8-methyl-7-oxopyrido[2,3-d]pyrimidin-6-ylsulfonyl)benzoate], the melting point fell in the range of 305 to 310 °C. Also, the IC50 in series [1] lay within 1 to 10 µM. Besides, the IC50 with DU145 (prostate cancer) was 1 to 10 µM.
In turn, `Cc1ccc(S(=O)(=O)c2cc3cnc(Nc4ccc5c(c4)CC(=O)N5)nc3n(C)c2=O)cc1` [Example 27, 2-(2-oxoindolin-5-ylamino)-8-methyl-6-tosylpyrido[2,3-d]pyrimidin-7(8H)-one] displayed a melting point of 280 °C. The IC50 in series [1] was 25 to 50 µM. Besides, in the series with DU145 (prostate cancer), the IC50 is 50 to 100 µM.
For `Cc1ccc(S(=O)(=O)c2cc3cnc(Nc4ccc5cc[nH]c5c4)nc3n(C)c2=O)cc1` [Example 28, 2-(1H-indol-6-ylamino)-8-methyl-6-tosylpyrido[2,3-d]pyrimidin-7(8H)-one], in that order: 334 to 336 °C, 10 to 25 µM and 10 to 25 µM.
As for `COc1ccc(S(=O)(=O)c2cc3cnc(Nc4ccc5[nH]ccc5c4)nc3n(C)c2=O)cc1` [Example 29, 2-(1H-indol-5-ylamino)-6-(4-methoxyphenylsulfonyl)-8-methylpyrido[2,3-d]pyrimidin-7(8H)-one], the melting point is 260 to 262 °C. For the same compound, in series [1], the half-inhibitory concentration (IC50) is below 1 µM. Also, the IC50 with DU145 (prostate cancer) is below 1 µM.
With `COc1ccc(S(=O)(=O)c2cc3cnc(Nc4cccc5[nH]ccc45)nc3n(C)c2=O)cc1` [Example 30, 2-(1H-indol-4-ylamino)-6-(4-methoxyphenylsulfonyl)-8-methylpyrido[2,3-d]pyrimidin-7(8H)-one], the melting point was in the range of 289 to 292 °C. In series [1], the IC50 was in the range of 1 to 10 µM. Besides, the IC50 in the series with DU145 (prostate cancer) was in the range of 1 to 10 µM.
Take `Cn1c(=O)c(S(=O)(=O)c2ccc(Cl)cc2)cc2cnc(Nc3cccc4[nH]ccc34)nc21` [Example 31, 2-(1H-indol-4-ylamino)-6-(4-chlorophenylsulfonyl)-8-methylpyrido[2,3-d]pyrimidin-7(8H)-one]: the melting point lay in the range of 320 to 324 °C. Also, the IC50 in series [1] fell in the range of 1 to 10 µM. Besides, the IC50 in the series with DU145 (prostate cancer) was in the range of 1 to 10 µM.
`Cn1c(=O)c(S(=O)(=O)c2ccc(Cl)cc2)cc2cnc(Nc3cnc4[nH]ccc4c3)nc21` [Example 32, 2-(1H-pyrrolo[2,3-b]pyridin-5-ylamino)-6-(4-chlorophenylsulfonyl)-8-methylpyrido[2,3-d]pyrimidin-7(8H)-one] registered a melting point of 296 to 298 °C. Also, in series [1], the IC50 was 1 to 10 µM. Also, the IC50 with DU145 (prostate cancer) lay in the range of 1 to 10 µM.
For the compound `Cn1c(=O)c(S(=O)(=O)c2ccc(F)c(Cl)c2)cc2cnc(Nc3ccc4[nH]ccc4c3)nc21` [Example 33, 2-(1H-indol-5-ylamino)-6-(3-chloro-4-fluorophenylsulfonyl)-8-methylpyrido[2,3-d]pyrimidin-7(8H)-one], the melting point is 250 to 255 °C. Besides, in series [1], the IC50 is below 1 µM. Also, the IC50 in the series on DU145 (prostate cancer) is 1 to 10 µM.
On to `Cn1c(=O)c(S(=O)(=O)c2ccc(F)c(Cl)c2)cc2cnc(Nc3cccc4[nH]ccc34)nc21` [Example 34, 2-(1H-indol-4-ylamino)-6-(3-chloro-4-fluorophenylsulfonyl)-8-methylpyrido[2,3-d]pyrimidin-7(8H)-one], for which the melting point is 315 to 320 °C. For the same compound, the IC50 in series [1] was 50 to 100 µM. Further, the IC50 in the series on DU145 (prostate cancer) lay in the range of 50 to 100 µM.
With `Cn1c(=O)c(S(=O)(=O)c2ccc(F)c(Cl)c2)cc2cnc(Nc3cnc4[nH]ccc4c3)nc21` [Example 35, 2-(1H-pyrrolo[2,3-b]pyridin-5-ylamino)-6-(3-chloro-4-fluorophenylsulfonyl)-8-methylpyrido[2,3-d]pyrimidin-7(8H)-one], the melting point lay in the range of 320 to 325 °C. For the same compound, in series [1], the IC50 was below 1 µM. Further, the concentration for half-maximal inhibition (IC50) with DU145 (prostate cancer) was below 1 µM.
Take `Cn1c(=O)c(S(=O)(=O)c2ccc(C(=O)O)cc2)cc2cnc(Nc3ccc4[nH]ccc4c3)nc21` [Example 37, 4-(2-(1H-indol-5-ylamino)-7,8-dihydro-8-methyl-7-oxopyrido[2,3-d]pyrimidin-6-ylsulfonyl)benzoic acid]: the melting point lay in the range of 262 to 265 °C. Besides, in series [1], the IC50 was 10 to 25 µM. Besides, in the series with DU145 (prostate cancer), the IC50 is 10 to 25 µM.
Turning to `CCCn1c(=O)c(S(=O)(=O)c2ccccc2)cc2cnc(Nc3ccc4cc[nH]c4c3)nc21` [Example 44, 2-(1H-indol-6-ylamino)-6-(phenylsulfonyl)-8-propylpyrido[2,3-d]pyrimidin-7(8H)-one], the melting point is 272 to 273 °C. Further, the IC50 in series [1] lay in the range of 1 to 10 µM. For the same compound, the IC50 with DU145 (prostate cancer) lay within 1 to 10 µM.
`CCCn1c(=O)c(S(=O)(=O)c2ccccc2)cc2cnc(Nc3cccc4[nH]ccc34)nc21` [Example 45, 2-(1H-indol-4-ylamino)-6-(phenylsulfonyl)-8-propylpyrido[2,3-d]pyrimidin-7(8H)-one]: the melting point was 260 to 261 °C. In addition, in series [1], the IC50 lay within 1 to 10 µM. The IC50 with DU145 (prostate cancer) was in the range of 10 to 25 µM.
Compound `CCCn1c(=O)c(S(=O)(=O)c2ccccc2)cc2cnc(Nc3ccc4[nH]ccc4c3)nc21` [Example 47, 2-(1H-indol-5-ylamino)-6-(phenylsulfonyl)-8-propylpyrido[2,3-d]pyrimidin-7(8H)-one] registered a melting point of 293 to 295 °C. In series [1], the IC50 was below 1 µM. Further, the IC50 with DU145 (prostate cancer) was in the range of 1 to 10 µM.
`CCCn1c(=O)c(S(=O)(=O)c2ccccc2)cc2cnc(SC)nc21` [Example 48, 2-(methylsulfanyl)-6-(phenylsulfonyl)-8-propylpyrido[2,3-d]pyrimidin-7(8H)-one] came in with a melting point of 231 to 232 °C. In addition, in series [1], the IC50 lay in the range of 50 to 100 µM. Besides, the IC50 in the series on DU145 (prostate cancer) is above 100 µM.
